According to patent US9920017B2, “Heterocyclic compounds as pesticides” (BAYER CROPSCIENCE AKTIENGESELLSCHAFT, priority 2014, dated 2018):
Read-outs that look alike come from different tables or passages of the source.

Assays:
[1] = Determination of log P values by HPLC (reversed-phase C18); format: physicochemical; details: for chromatographic logP: reversed-phase C18 HPLC column
Method: 1) Description of Method for Determination of the Log P Values ([…]) The log P values given in the table were determined in accordance with EEC Directive 79/831 Annex V.A8 by HPLC (High Performance Liquid Chromatography) using a reversed-phase column (C 18). Temperature: 55° C. […] Gradient: from 10% eluent A/90% eluent B to 95% eluent A/5% eluent B in 4.25 min. Calibration was effected with unbranched alkan-2-ones (having 3 to 16 carbon atoms) with known log P values (log P values determined on the basis of the retention times by linear interpolation between two successive alkanones). The lambda max values were determined in the maxima of the chromatographic signals using the UV spectra from 200 nm to 400 nm.

Phaedon cochleariae = Phaedon cochleariae spray test (PHAECO); format: in vivo; details: 500 g/ha; Chinese cabbage leaf discs, larvae; after 7 days
Method: Phaedon cochleariae—Spray Test (PHAECO)
(§1) Solvent: 78.0 parts by weight of acetone • • 1.5 parts by weight of dimethylformamide
(§2) Emulsifier: alkylaryl polyglycol ether
(§3) To produce an appropriate active ingredient formulation, 1 part by weight of active ingredient is dissolved using the stated parts by weight of solvent and made up with water containing an emulsifier concentration of 1000 ppm until the desired concentration is attained. To produce further test concentrations, the preparation is diluted with emulsifier-containing water.
Discs of Chinese cabbage leaves (Brassica pekinensis) are sprayed with an active ingredient formulation of the desired concentration and, after drying, populated with larvae of the mustard beetle (Phaedon cochleariae).
After 7 days, the efficacy in % is determined 100% means that all the beetle larvae have been killed; 0% means that no beetle larvae have been killed.

Myzus persicae = Myzus persicae spray test; format: in vivo; details: 500 g/ha; Chinese cabbage leaf discs; after 6 days
Method: Myzus persicae—Spray Test
Solvent: 78 parts by weight of acetone • • 1.5 parts by weight of dimethylformamide
as §2, §3
Discs of Chinese cabbage leaves (Brassica pekinensis) infested by all stages of the green peach aphid (Myzus persicae) are sprayed with an active ingredient formulation of the desired concentration.
After 6 days, the efficacy in % is determined 100% means that all the aphids have been killed; 0% means that no aphids have been killed.

Meloidogyne incognita = Meloidogyne incognita test (MELGIN); format: in vivo; details: 20 ppm; lettuce; after 14 days
Method: Meloidogyne incognita Test (MELGIN) Solvent: 125.0 parts by weight of acetone To produce a suitable active ingredient formulation, 1 part by weight of active ingredient is mixed with the stated amount of solvent and the concentrate is diluted with water to the desired concentration. Vessels are filled with sand, active ingredient solution, an egg/larvae suspension of the southern root-knot nematode (Meloidogyne incognita) and lettuce seeds. The lettuce seeds germinate and the plants develop. The galls develop on the roots. After 14 days, the nematicidal efficacy in % is determined by the formation of galls. 100% means that no galls were found; 0% means that the number of galls on the treated plants corresponds to the untreated control.

Boophilus microplus = Boophilus microplus injection test; format: in vivo; details: 20 μg/animal injected into engorged adult female cattle ticks; assessed after 7 days by laying of fertile eggs
Method: Boophilus microplus—Injection Test
(§4) Solvent: dimethyl sulphoxide
To produce an appropriate active ingredient formulation, 10 mg of active ingredient are mixed with 0.5 ml of solvent and the concentrate is diluted with solvent to the desired concentration.
1 μl of the active ingredient solution is injected into the abdomen of 5 engorged adult female cattle ticks (Boophilus microplus). The animals are transferred into dishes and kept in a climate-controlled room.
Efficacy is assessed after 7 days by laying of fertile eggs. Eggs which are not visibly fertile are stored in a climate-controlled cabinet for about another 42 days until the larvae hatch. An efficacy of 100% means that none of the ticks has laid any fertile eggs; 0% means that all the eggs are fertile.

Cooperia curticei = Cooperia curticei test; format: in vivo; details: 20 ppm; nematode larvae; after 5 days
Method: as §4
To produce an appropriate active ingredient formulation, 10 mg of active ingredient are mixed with 0.5 ml of dimethyl sulphoxide and the concentrate is diluted with “Ringer's solution” to the desired concentration.
Vessels containing the active ingredient formulation of the desired concentration are populated with about 40 nematode larvae (Cooperia curticei).
After 5 days, the kill in % is determined 100% means that all the larvae have been killed; 0% means that none of the larvae have been killed.

Lucilia cuprina = Lucilia cuprina test; format: in vivo; details: 100 ppm; L1 larvae; after 2 days
Method: Lucilia cuprina Test Solvent: dimethyl sulphoxide To produce an appropriate active ingredient formulation, 10 mg of active ingredient are mixed with 0.5 ml of dimethyl sulphoxide, and the concentrate is diluted with water to the desired concentration. About 20 L1 larvae of the Australian sheep blowfly (Lucilia cuprina) are transferred into a test vessel containing minced horsemeat and the active ingredient preparation of the desired concentration. After 2 days, the kill in % is determined 100% means that all the larvae have been killed; 0% means that no larvae have been killed.

Musca domestica = Musca domestica test; format: in vivo; details: 100 ppm; adult houseflies; after 2 days
Method: Musca domestica Test Solvent: dimethyl sulphoxide To produce an appropriate active ingredient formulation, 10 mg of active ingredient are mixed with 0.5 ml of dimethyl sulphoxide, and the concentrate is diluted with water to the desired concentration. Vessels containing a sponge treated with sugar solution and the active ingredient formulation of the desired concentration are populated with 10 adult houseflies (Musca domestica). After 2 days, the kill in % is determined 100% means that all of the flies have been killed; 0% means that none of the flies have been killed.

Haemonchus contortus = Haemonchus contortus test; format: in vivo; details: 20 ppm; larvae; after 5 days
Method: Haemonchus contortus Test Solvent: dimethyl sulphoxide To produce an appropriate active ingredient formulation, 10 mg of active ingredient are mixed with 0.5 ml of dimethyl sulphoxide and the concentrate is diluted with “Ringer's solution” to the desired concentration. Vessels containing the active ingredient formulation of the desired concentration are populated with about 40 larvae of the red stomach worm (Haemonchus contortus). After 5 days, the kill in % is determined 100% means that all the larvae have been killed; 0% means that none of the larvae have been killed.

Tetranychus urticae = Tetranychus urticae spray test, OP-resistant; format: in vivo; details: 500 g/ha, bean leaf discs, after 6 days
Method: Tetranychus urticae—Spray Test, OP-Resistant
as §1, §2, §3
Discs of bean leaves (Phaseolus vulgaris) infested by all stages of the greenhouse red spider mite (Tetranychus urticae) are sprayed with an active ingredient formulation of the desired concentration.
After 6 days, the efficacy in % is determined. 100% means that all the spider mites have been killed; 0% means that no spider mites have been killed.

[2] = pH 3.4, HPLC-MS, preparation examples, read-out: log P
[3] = HPLC, reversed-phase C18, 55° C., final compounds table, read-out: log P neutral
[4] = HPLC, reversed-phase C18, 55° C., final compounds table

log P neutral [1, 4] | Compound | nematicidal efficacy (formation of galls) (Meloidogyne incognita) [%] | efficacy (Boophilus microplus) [%] | efficacy (kill) (Cooperia curticei) [%] | other results
 | O=C(Nc1nnn(-c2ccccc2)n1)c1ccccc1C(F)(F)F [Compound I-2-3, N-(2-Phenyl-2H-tetrazol-5-yl)-2-(trifluoromethyl)benzamide] |  |  |  | chromatographic logP [1, 2]: 2.57; chromatographic logP [1, 3]: 2.57; efficacy (Phaedon cochleariae): 100%
2.09 | O=C(Nc1ncn(-c2ccccc2Br)n1)c1ccccc1I [Compound I-1-72] |  |  |  | efficacy (Myzus persicae): 90%
1.82 | O=C(Nc1ncn(-c2c(F)cccc2F)n1)c1ncccc1C(F)(F)F [Compound I-1-91] | 100 |  |  | efficacy (Phaedon cochleariae): 100%
2.10 | O=C(Nc1ncn(-c2c(F)ccc(F)c2F)n1)c1ccccc1C(F)(F)F [Compound I-1-57] | 100 | 90 | 100 | 
1.73 | O=C(Nc1ncn(-c2c(F)cccc2F)n1)c1nccnc1C(F)(F)F [Compound I-1-24] | 100 | 100 |  | efficacy (kill) (Lucilia cuprina): 100%; efficacy (kill) (Musca domestica): 80%
 | O=C(Nc1ncn(-c2c(F)cccc2Br)n1)c1ccccc1C(F)(F)F [Compound I-1-30, 2-Trifluoromethyl-N-[1-(2-bromo-6-fluorophenyl)-1H-1,2,4-triazol-3-yl]benzamide] | 100 | 100 | 80 | chromatographic logP ([1]; HPLC-MS, preparation examples, read-out: log P (neutral)): 2.15
2.03 | O=C(Nc1ncn(-c2c(F)ccc(F)c2F)n1)c1ccccc1I [Compound I-1-59] | 100 | 100 | 90 | 
1.92 | O=C(Nc1ncn(-c2c(F)cccc2F)n1)c1ccccc1C(F)F [Compound I-1-18] | 100 | 80 |  | efficacy (Phaedon cochleariae): 83%
2.15 | O=C(Nc1ncn(-c2c(F)cccc2I)n1)c1ccccc1I [Compound I-1-85] | 100 |  | 80 | 
2.10 | O=C(Nc1ncn(-c2c(F)cccc2Cl)n1)c1ccccc1C(F)(F)F [Compound I-1-33] | 100 | 100 | 100 | efficacy (Phaedon cochleariae): 100%
1.89 | O=C(Nc1ncn(-c2c(F)cccc2F)n1)c1ccccc1I [Compound I-1-21] | 100 |  | 100 | efficacy (kill) (Haemonchus contortus): 80%
2.21 | O=C(Nc1ncn(-c2c(F)cccc2I)n1)c1ccccc1C(F)(F)F [Compound I-1-83] | 100 |  | 80 | 
2.49 | O=C(Nc1ncn(-c2c(F)c(F)c(F)c(F)c2F)n1)c1ccccc1C(F)(F)F [Compound I-1-65] |  | 100 |  | 
2.05 | O=C(Nc1ncn(-c2c(F)cc(F)cc2F)n1)c1ccccc1C(F)(F)F [Compound I-1-61] | 100 |  | 80 | 
 | O=C(Nc1ncn(-c2c(F)cccc2F)n1)c1ccccc1C(F)(F)F [Compound I-1-11, 2-Trifluoromethyl-N-[1-(2,6-difluorophenyl)-1H-1,2,4-triazol-3-yl]benzamide] | 90 | 100 |  | efficacy (kill) (Lucilia cuprina): 100%; chromatographic logP [1, 2]: 1.97; chromatographic logP [1, 3]: 1.97; efficacy (kill) (Musca domestica): 80%
2.51 | O=C(Nc1ncn(-c2ccccc2OC(F)(F)F)n1)c1ccccc1C(F)(F)F [Compound I-1-10] | 100 | 100 |  | 
2.31 | Cc1cc(C)c([S+]([O-])CC(F)(F)F)cc1-n1cnc(NC(=O)c2ccccc2C(F)(F)F)n1 (stereo not drawn) [Compound I-1-90] |  |  |  | efficacy (Tetranychus urticae): 95%
2.26 | O=C(Nc1ncn(-c2c(Cl)cccc2Cl)n1)c1ccccc1C(F)(F)F [Compound I-1-44] | 100 | 90 |  | 
